Assay results as given in publication PMC7413254 (Nature Communications, 2020).
Values joined by “and” are separate entries in the source; they are usually repeats but may differ in a detail not shown here. Equal values may be shown once. Read-outs that look alike come from different tables or passages of the source. Where no end group is shown, it is not given here.

Assays:
Assay in all cases: cell-based
PfCRT^Dd2 = PfCRT^Dd2 (Plasmodium falciparum, UniProt Q9N623, A220S/I356T/K76T/M74I/N326S/N75E/Q271E/R371I); settings: for [3H]VF-6 transport, PfCRTDd2 (% PfCRT3D7 control): trans-inhibition, treatment 45 mM
Description: (§1) The characterisation of [^3H]VF-6 transport via 23 different field and laboratory-derived isoforms of PfCRT was undertaken with oocytes two days post-cRNA-injection (Figs. 3a–j, 4; Supplementary Fig. 2). The oocytes were injected with 25 nL of ND96 buffer (pH 5.5) supplemented with [^3H]VF-6 and unlabelled VF-6 to achieve estimated intracellular concentrations of 1.4 and 200 μM, respectively. Ten oocytes that had resealed at the injection site were transferred to a 5 mL polystyrene round bottom tube (In Vitro Technologies) and washed with 3.5 mL of ND96 buffer before being transferred to separate wells of a white 96-well plate (PerkinElmer). This treatment served to establish the amount of radioactivity within the oocytes immediately prior to the commencement of the transport assay. Another 10 resealed oocytes were transferred to a 5 mL tube and washed with 3.5 mL of ND96 buffer. […] The assay was terminated by removing the reaction buffer with a pipette and washing the oocytes twice with 3.5 mL of ice-cold ND96 buffer. Each oocyte was transferred to a separate well of a white 96-well plate. The oocytes were lysed by the addition of 20 μL of 10% (w/v) SDS and overnight incubation at room temperature. The lysed oocyte was then combined with 150 μL of MicroScint-40 microscintillant (PerkinElmer), the plate covered with a TopSeal-A (PerkinElmer), and the radioactivity measured with a MicroBeta^2 microplate liquid scintillation analyser (PerkinElmer). VF-6 transport was calculated by subtracting the amount of radioactivity (measured in counts per minute) present within the oocytes at the end of the incubation from that measured in the oocytes sampled immediately before the commencement of the assay. The pH-dependence of transport (Fig. 3c) was determined by injecting the oocytes with [^3H]VF-6 suspended in 25 nL ND96 buffer adjusted to pH 5.0, 5.5, 6.0 or 7.0, which corresponded to the injection of 2.5–250 fmol of H^+. The dependence of [^3H]VF-6 transport on Na^+ or Cl^− was examined by injecting the oocytes with [^3H]VF-6 suspended in the control ND96 buffer (pH 5.5) or a version of this buffer that lacked either Na^+ or Cl^− (Supplementary Fig. 2). […] The dependence of peptide transport on Ca^2+ was determined by injecting the oocytes with [^3H]VF-6 suspended in ND96 buffers that contained different concentrations of Ca^2+ (0–5 mM; Supplementary Fig. 2). […] The dependence of PfCRT-mediated transport on the membrane potential was examined by using (1) Na^+ ionophore III in conjunction with the Na^+ gradients listed in Supplementary Data 7 and (2) Cl^− ionophore III in conjunction with the Cl^− gradients listed in Supplementary Data 7 to clamp the membrane potential of the oocyte from −80 to +80 mV. […] The kinetic parameters for VF-6 transport via different isoforms of PfCRT (Figs. 3e and 4a) were determined in SigmaPlot Windows Version 11.0 by a least-squares fit of the Michaelis–Menten equation to the data.
(§2) A subset of assays measured the ability of solutes known to interact with PfCRT to either cis-inhibit, trans-inhibit or trans-stimulate [^3H]VF-6 transport. These experiments involved adding these solutes to either the cis- or trans-side of the membrane relative to [^3H]VF-6. […] At least five independent experiments were performed (on different days and using oocytes from different frogs), and within each experiment measurements were made from ten oocytes per treatment.

PfCRT^Ecu1110 = PfCRT^Ecu1110 (Plasmodium falciparum, UniProt Q9N623, A220S/I356L/K76T/N326D); settings: for [3H]VF-6 transport, PfCRTEcu1110 (% PfCRT3D7 control): trans-inhibition, treatment 45 mM
Description: as §1, §2

PfCRT^3D7 = PfCRT^3D7 (Plasmodium falciparum, UniProt Q8IBZ9); settings: for Trans effect on [3H]VF-6 transport via PfCRT (in words): all three PfCRT isoforms (3D7, Ecu1110, Dd2)
Description: as §1, §2

[1] = trans-inhibition, treatment 45 mM, Experiment 1
[2] = trans-inhibition, treatment 45 mM, Experiment 2
[3] = trans-inhibition, treatment 45 mM, Experiment 3
[4] = trans-inhibition, treatment 45 mM, Experiment 4
[5] = trans-inhibition, treatment 45 mM, Experiment 5

Chain of PfCRT^Dd2 (Q9N623 whole entry A220S/I356T/K76T/M74I/N326S/N75E/Q271E/R371I, canonical isoform): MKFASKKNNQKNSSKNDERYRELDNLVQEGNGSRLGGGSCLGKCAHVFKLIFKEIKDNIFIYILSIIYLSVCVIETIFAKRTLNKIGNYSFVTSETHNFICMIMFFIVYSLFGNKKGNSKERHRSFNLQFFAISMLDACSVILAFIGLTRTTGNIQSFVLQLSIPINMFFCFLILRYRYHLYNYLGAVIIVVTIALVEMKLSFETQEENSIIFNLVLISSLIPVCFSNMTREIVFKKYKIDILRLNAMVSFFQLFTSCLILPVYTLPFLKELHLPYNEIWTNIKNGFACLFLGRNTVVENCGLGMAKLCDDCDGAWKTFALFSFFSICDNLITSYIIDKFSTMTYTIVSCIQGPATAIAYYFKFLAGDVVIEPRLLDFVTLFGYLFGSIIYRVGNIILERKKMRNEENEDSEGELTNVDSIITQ
Chain of PfCRT^Ecu1110 (Q9N623 whole entry A220S/I356L/K76T/N326D): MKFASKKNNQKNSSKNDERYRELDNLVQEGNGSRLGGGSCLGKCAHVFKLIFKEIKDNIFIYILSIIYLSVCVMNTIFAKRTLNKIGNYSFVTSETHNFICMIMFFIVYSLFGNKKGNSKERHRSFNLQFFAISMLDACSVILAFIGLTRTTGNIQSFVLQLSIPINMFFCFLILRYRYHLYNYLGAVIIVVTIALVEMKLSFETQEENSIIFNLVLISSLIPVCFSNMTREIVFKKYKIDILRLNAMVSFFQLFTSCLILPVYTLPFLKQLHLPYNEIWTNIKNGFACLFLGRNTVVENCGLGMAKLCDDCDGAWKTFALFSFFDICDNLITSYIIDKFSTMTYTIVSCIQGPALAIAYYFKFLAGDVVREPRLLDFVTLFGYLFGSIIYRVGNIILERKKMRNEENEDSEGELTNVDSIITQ
Chain of PfCRT^3D7 (Q8IBZ9 59-398): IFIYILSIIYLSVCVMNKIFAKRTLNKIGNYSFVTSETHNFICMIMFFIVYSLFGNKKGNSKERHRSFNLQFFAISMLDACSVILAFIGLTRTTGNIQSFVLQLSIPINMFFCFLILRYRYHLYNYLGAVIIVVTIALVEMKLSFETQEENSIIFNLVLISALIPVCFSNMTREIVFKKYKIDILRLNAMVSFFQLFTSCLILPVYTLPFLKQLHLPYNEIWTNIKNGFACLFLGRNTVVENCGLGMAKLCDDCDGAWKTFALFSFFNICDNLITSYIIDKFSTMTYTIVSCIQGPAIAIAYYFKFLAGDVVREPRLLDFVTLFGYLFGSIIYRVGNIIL

| Compound | [3H]VF-6 transport, PfCRTDd2 (% PfCRT3D7 control) (PfCRT^Dd2; Experiment 1) | [3H]VF-6 transport, PfCRTDd2 (% PfCRT3D7 control) (PfCRT^Dd2; Experiment 2) | [3H]VF-6 transport, PfCRTDd2 (% PfCRT3D7 control) (PfCRT^Dd2; Experiment 3) | [3H]VF-6 transport, PfCRTDd2 (% PfCRT3D7 control) (PfCRT^Dd2; Experiment 4) | [3H]VF-6 transport, PfCRTDd2 (% PfCRT3D7 control) (PfCRT^Dd2; Experiment 5) | [3H]VF-6 transport, PfCRTEcu1110 (% PfCRT3D7 control) (PfCRT^Ecu1110; Experiment 1) | [3H]VF-6 transport, PfCRTEcu1110 (% PfCRT3D7 control) (PfCRT^Ecu1110; Experiment 2) | [3H]VF-6 transport, PfCRTEcu1110 (% PfCRT3D7 control) (PfCRT^Ecu1110; Experiment 3) | [3H]VF-6 transport, PfCRTEcu1110 (% PfCRT3D7 control) (PfCRT^Ecu1110; Experiment 4) | [3H]VF-6 transport, PfCRTEcu1110 (% PfCRT3D7 control) (PfCRT^Ecu1110; Experiment 5) | [3H]VF-6 transport, PfCRT3D7 (% PfCRT3D7 control) (PfCRT^3D7) | [3H]VF-6 transport, PfCRT3D7 (% PfCRT3D7 control) (PfCRT^3D7; [1]) | [3H]VF-6 transport, PfCRT3D7 (% PfCRT3D7 control) (PfCRT^3D7; [2]) | [3H]VF-6 transport, PfCRT3D7 (% PfCRT3D7 control) (PfCRT^3D7; [3]) | [3H]VF-6 transport, PfCRT3D7 (% PfCRT3D7 control) (PfCRT^3D7; [4]) | [3H]VF-6 transport, PfCRT3D7 (% PfCRT3D7 control) (PfCRT^3D7; [5]) | other results |
| --- | --- | --- | --- | --- | --- | --- | --- | --- | --- | --- | --- | --- | --- | --- | --- | --- | --- |
| CC(C)(C)NC(=O)[C@@H]1C[C@@H]2CCCC[C@@H]2CN1C[C@@H](O)[C@H](Cc1ccccc1)NC(=O)[C@H](CC(N)=O)NC(=O)c1ccc2ccccc2n1 [Saquinavir, saquinavir, reference compound] |  |  |  |  |  |  |  |  |  |  |  |  |  |  |  |  | IC50 (PfCRT^Dd2; Cis-inhibition IC50 of [3H]VF-6 transport, PfCRTDd2, drug on same side as [3H]VF-6, mean ± SEM, n = 5, SEM): 89 ± 3.8 µM; IC50 (PfCRT^Ecu1110; Cis-inhibition IC50 of [3H]VF-6 transport, PfCRTEcu1110, drug on same side as [3H]VF-6, mean ± SEM, n = 5, SEM): 74 ± 3.9 µM; Trans effect on [3H]VF-6 transport via PfCRT (in words) (PfCRT^3D7): trans-stimulated; Trans effect on [3H]VF-6 transport via PfCRT (in words) (PfCRT^3D7; listed as SQV): Trans-stimulates; IC50 (PfCRT^3D7; drug on same side as [3H]VF-6, mean ± SEM, n = 5, SEM, read-out: Cis-inhibition IC50 of [3H]VF-6 transport, PfCRT3D7): 50 ± 2.3 µM |
| DPVN [VF-6-derived peptide] | 7.83 % PfCRT3D7 control | 7.93 % PfCRT3D7 control | 7.34 % PfCRT3D7 control | 7.75 % PfCRT3D7 control | 8.53 % PfCRT3D7 control | 9.56 % PfCRT3D7 control | 9.46 % PfCRT3D7 control | 8.39 % PfCRT3D7 control | 9.45 % PfCRT3D7 control | 9.93 % PfCRT3D7 control | 26.43 % PfCRT3D7 control and 27.43 % PfCRT3D7 control and 23.23 % PfCRT3D7 control and 20.32 % PfCRT3D7 control and 20.85 % PfCRT3D7 control |  |  |  |  |  |  |
| DPVNF [VF-6-derived peptide] | 9.35 % PfCRT3D7 control | 8.35 % PfCRT3D7 control | 9.55 % PfCRT3D7 control | 8.26 % PfCRT3D7 control | 9.66 % PfCRT3D7 control | 7.36 % PfCRT3D7 control | 8.38 % PfCRT3D7 control | 7.23 % PfCRT3D7 control | 8.43 % PfCRT3D7 control | 7.77 % PfCRT3D7 control |  | 21.64 % PfCRT3D7 control | 22.13 % PfCRT3D7 control | 19.38 % PfCRT3D7 control | 18.32 % PfCRT3D7 control | 19.24 % PfCRT3D7 control |  |
| PVNF [VF-6-derived peptide] | 8.23 % PfCRT3D7 control | 8.92 % PfCRT3D7 control | 7.3 % PfCRT3D7 control | 7.53 % PfCRT3D7 control | 7.44 % PfCRT3D7 control | 10.55 % PfCRT3D7 control | 12.46 % PfCRT3D7 control | 11.35 % PfCRT3D7 control | 10.58 % PfCRT3D7 control | 10.07 % PfCRT3D7 control | 25.32 % PfCRT3D7 control and 24.64 % PfCRT3D7 control and 25.23 % PfCRT3D7 control and 25.9 % PfCRT3D7 control and 23.94 % PfCRT3D7 control |  |  |  |  |  |  |
| VDPVN [VF-6-derived peptide] | 7.28 % PfCRT3D7 control | 7.49 % PfCRT3D7 control | 7.54 % PfCRT3D7 control | 7.59 % PfCRT3D7 control | 7.33 % PfCRT3D7 control | 6.34 % PfCRT3D7 control | 5.74 % PfCRT3D7 control | 6.34 % PfCRT3D7 control | 6.94 % PfCRT3D7 control | 6.25 % PfCRT3D7 control |  | 20.24 % PfCRT3D7 control | 19.6 % PfCRT3D7 control | 22.64 % PfCRT3D7 control | 22.05 % PfCRT3D7 control | 19.48 % PfCRT3D7 control |  |
| VDPVNF [VF-6] |  |  |  |  |  |  |  |  |  |  |  | 17.84 % PfCRT3D7 control | 18.04 % PfCRT3D7 control | 20.27 % PfCRT3D7 control | 18.57 % PfCRT3D7 control | 17.74 % PfCRT3D7 control |  |
